{"source": "patent US20260355199A1", "about": "“COMPOSITIONS AND METHODS FOR TREATING OR PREVENTING NONALCOHOLIC STEATOHEPATITIS (NASH), ANOREXIA, DEPRESSION, ENDOMETRIOSIS, AND OTHER DISEASES OR DISORDERS” (priority 2022, published 2026)", "key": {"[1]": {"test_system": "TET3", "test": "TET3 protein in the ARC of mice (immunofluorescence)", "format": "in vivo, mouse", "procedure": "To test whether Bobcat339 affects TET3 protein expression in AgRP neurons, Agrp-IRES-Cre::LSL-Cas9-GFP mice with GFP expression specifically in AgRP neurons were intraperitoneally injected with vehicle or Bobcat339 at 2.5 mg/kg, followed by isolation of ARCs under fed conditions (9:00-11:00) two days later. This dose was chosen based on the dose response studies. TET2 expression was widespread but was negligible in AgRP neurons.\nBobcat339 powder (Sigma-Aldrich, SML2611) was freshly dissolved in DMSO (vehicle) at a concentration of 50 mg/mL and filtered through a 0.22 micron. It was further diluted with 1×PBS to a final concentration of 0.5 mg/mL before injections. Mice were injected intraperitoneally with Bobcat339 at 1 mg/kg, 2.5 mg/kg, or 4 mg/kg.\nThe immunofluorescence for brain slices was conducted using previous methods (18). In brief, postfixed sections were cut into 40-μm-thick sections, followed by 5 times washing. Then the sections were incubated in blocking solution for 20 minutes and incubated with anti-TET3 (dilution 1:2000; Millipore Sigma, ABE290), anti-TET2 (dilution 1:500; Proteintech, 21207-1-AP), anti-AGRP (dilution 1:400; H-003-57, Phoenix Pharmaceuticals), anti-NPY (dilution 1:800, Cell Signaling Technology, 11976S), anti-VGAT (dilution 1:200; Abcam, Ab23592), or anti-FOS (dilution 1:1000; Biosensis, R-1751-050) overnight at 4 °C. Negative controls were performed by omitting the respective primary antibodies. The next day, sections were washed 5 times and incubated in 0.4% Triton x-100 PBS with the secondary antibody donkey anti-Rabbit IgG Fluor 594 (dilution 1:500; A-21207, Invitrogen) for 2 h at RT. The sections were coverslipped and scoped using a Keyence BZ-X700 fluorescence microscope. The fluorescence signals from GFP in AgRP neurons were detected without immunostaining."}, "[2]": {"test_system": "Bobcat339-treated ABA mice", "test": "Behavioral tests (OFT, TST, FST)", "format": "in vivo, mouse", "excerpt": "It has been reported that AgRP neuron-specific TET3 knockdown reduces stress-like behaviors with decreased levels of circulating corticosterone. […] The open field test (OFT) has been used to assess general locomotor activity and anxiety; the tail suspension test (TST) and forced swim test (FST) have been used to evaluate behavioral despair and also to test the efficacy of new antidepressant compounds. All three tests (OFT, TST, and FST) have been used in previous studies to assess behavioral impacts of AgRP neurons in mice (Miletta, M. C. et al., 2020, Nature Metabolism, 2:1204-1211).\nFor all behavioral tests, mice were transferred to the testing room 1 h prior to testing for acclimation to the environment. All behavioral tests were performed in the afternoon (14:00-16:00). All behavioral apparatus was wiped with 70% ethanol prior to each trial and between trials. The open field (OF) apparatus consisted of a 56×56 cm open arena with 30 cm high walls. The mouse was placed into the center of the arena and allowed to move freely for 10 min with the activity being recorded and tracked by LimeLight 3 software (Actimetrics, Coulbourn Instruments). The software recorded and analyzed the distance and time traveled in the central (28×28 cm central area of the OF) and outer areas of the arena. The tail suspension test (TST) and the forced swim test (FST) lasted for 6 min and the total amount of immobility time during the final 4 min was measured for each animal."}, "[3]": {"test_system": "TET3 and TET2 mRNA", "test": "TET3 and TET2 mRNA in human MDMs", "format": "cell-based", "parameters": "TET3 and TET2 mRNA levels: dose or concentration left out as unconfirmed", "settings": "24 h", "procedure": "For siRNA transfection in a 24-well plate scale of MDMs, NT siRNA or TET3 siRNA (4392420/s47239, Ambion) was mixed with 25 μL of OPTI-MEM by gentle pipetting. In parallel, 1.5 μL of Lipofectamine RNAiMAX was mixed with 25 μL of OPTI-MEM by gentle pipetting. Following 5 min of incubation at RT, the resulting 50 μl of transfection solution was added to each well of cells containing 450 μL of growth media.\nBobcat339 Treatment of Cultured Cells Bobcat339 powder (Sigma-Aldrich, SML2611) was freshly dissolved in DMSO at a concentration of 5 mM and filtered through a 0.22 micron. […]\nFor cultured MDMs, cells were primed with CM-Endo or TGF-β1 (PeproTech, 100-21) for 36-48 h (to increase TET3 expression) before Bobcat339 treatment.\nTotal RNAs were extracted from cells using PureLink RNA Mini Kit. 0.5-1 μg total RNA was reverse transcribed to cDNA in a reaction volume of 20 μL using PrimeScript RT Reagent Kit. Real-time quantitative PCR was performed in a 15 μL reaction volume containing 0.5-1 μL of cDNA using SsoAdvanced Universal SYBR Green Supermix in a Bio-Rad iCycler. Gene expression levels were normalized against RPLP0."}, "[4]": {"test_system": "TET3", "test": "TET3 protein stability (cycloheximide) in MDMs", "format": "cell-based, human", "settings": "10 μM, with cycloheximide", "procedure": "For TET protein stability assay of MDMs, cells in 24-well plates were incubated with vehicle or Bobcat339 at a final concentration of 10 μM for 3 h, followed by addition of cycloheximide (CHX, Cell Signaling, 2112) at a final concentration of 50 μg/mL. Proteins were harvested at 0, 2, 4, and 6 hours after addition of CHX."}}, "note": "“Also recorded” adds a separate entry of the source."}
{"smiles": "Nc1nc(=O)n(-c2cccc(-c3ccccc3)c2)cc1Cl", "note": "[Bobcat339, 4-Amino-1-[1,1′-biphenyl]-3-yl-5-chloro-2(1H)-pyrimidinone]", "values": [{"measurement": "TET3-positive AgRP neurons", "setting": "[1]; 2.5 mg/kg i.p., two days", "result": "a clear decrease in the number of TET3-positive AgRP neurons; also recorded: decreased TET3 protein in AgRP neurons; also recorded: inhibited TET3 expression in AgRP neurons"}, {"measurement": "TET3 protein in non-AgRP cells", "setting": "[1]; decrease limited to the tip regions of the ARC even at 4 mg/kg", "result": "decreased TET3 protein in non-AgRP cells"}, {"measurement": "onset of TET3 decrease in AgRP neurons and neuron activation", "setting": "[1]; following exposure to Bobcat339", "result": "as early as three days"}, {"measurement": "FST immobility time", "setting": "[2]; forced swim test", "result": "spent less immobility time"}, {"measurement": "OFT time spent in the center zone", "setting": "[2]; open field test", "result": "increased time spent in the center zone"}, {"measurement": "OFT total distance travelled", "setting": "[2]; open field test", "result": "no differences in the total distance travelled"}, {"measurement": "TST immobility time", "setting": "[2]; tail suspension test", "result": "spent less immobility time"}, {"measurement": "TET3 and TET2 mRNA", "setting": "[3]; 10 μM", "result": "did not alter the mRNA levels of TET3 and TET2; also recorded: no significant differences in their expression"}, {"measurement": "TET3 and TET2 mRNA levels", "setting": "[3]", "result": "did not alter the mRNA levels of TET3 and TET2"}, {"measurement": "TET3 protein stability", "setting": "[4]", "result": "reduced the steady-state level of TET3 much more dramatically than that of TET2"}]}
